Where “and” joins values, the source holds several entries; their conditions need not be identical. Equal values may be shown once. Where a SMILES comes first, the peptide text is derived from it. The star is where a group is joined. Cbz = O=C(OCc1ccccc1)*
What was measured:
Experiment in all cases: cells
[1] = tested on: MFH-ino; assay type: functional, cell-based, Homo sapiens;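 note: growth inhibition of human MFH-ino cells, read out by a cell viability assay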
Description: SANGER: Inhibition of human MFH-ino cell growth in a cell viability assay.

[2] = tested on: CMK; assay type: functional, cell-based, Homo sapiens;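 note: growth inhibition of CMK cells, read out as cell viability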
Description: SANGER: Inhibition of human CMK cell growth in a cell viability assay.

[3] = tested on: UACC-812; assay type: functional, cell-based; details: Homo sapiens
Description: SANGER: Inhibition of human UACC-812 cell growth in a cell viability assay.

[4] = tested on: NCI-H719; assay type: functional, cell-based, Homo sapiens;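 note: growth inhibition of the cultured cell line, read out with a viability assay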
Description: SANGER: Inhibition of human NCI-H719 cell growth in a cell viability assay.

[5] = tested on: SNU-C1; assay type: functional, cell-based, Homo sapiens;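 note: growth inhibition of SNU-C1 human cells, read out by a cell viability assay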
Description: SANGER: Inhibition of human SNU-C1 cell growth in a cell viability assay.

[6] = tested on: NCI-H187; assay type: functional, cell-based, Homo sapiens;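 note: growth inhibition of NCI-H187 cells, read out as cell viability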
Description: SANGER: Inhibition of human NCI-H187 cell growth in a cell viability assay.

[7] = tested on: Raji; assay type: functional, cell-based, Homo sapiens;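 note: cell viability assay measuring inhibition of Raji cell growth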
Description: SANGER: Inhibition of human Raji cell growth in a cell viability assay.

[8] = tested on: LP-1; assay type: functional, cell-based, Homo sapiens;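 note: growth inhibition of human LP-1 cells, with the read-out taken from a cell viability assay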
Description: SANGER: Inhibition of human LP-1 cell growth in a cell viability assay.

[9] = tested on: NB7; assay type: functional, cell-based, Homo sapiens;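 note: growth inhibition of NB7 cells, read out with a cell viability assay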
Description: SANGER: Inhibition of human NB7 cell growth in a cell viability assay.

[10] = tested on: KMOE-2; assay type: functional, cell-based, Homo sapiens;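 note: growth inhibition of human KMOE-2 cells, read out with a cell viability assay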
Description: SANGER: Inhibition of human KMOE-2 cell growth in a cell viability assay.

[11] = tested on: L-540; assay type: functional, cell-based, Homo sapiens;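 note: growth inhibition of the human L-540 cell line, read out with a viability assay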
Description: SANGER: Inhibition of human L-540 cell growth in a cell viability assay.

[12] = tested on: SNU-16; assay type: functional, cell-based, Homo sapiens;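 note: growth inhibition of human SNU-16 cells, determined with a cell viability readout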
Description: SANGER: Inhibition of human NCI-SNU-16 cell growth in a cell viability assay.

[13] = tested on: MONO-MAC-6; assay type: functional, cell-based, Homo sapiens;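 note: cell viability assay measuring growth inhibition of human MONO-MAC-6 cells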
Description: SANGER: Inhibition of human MONO-MAC-6 cell growth in a cell viability assay.

[14] = tested on: DMS-153; assay type: functional, cell-based, Homo sapiens
Description: SANGER: Inhibition of human DMS-153 cell growth in a cell viability assay.

[15] = tested on: ARH-77; assay type: functional, cell-based, Homo sapiens;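 note: growth inhibition of ARH-77 cells, read out by a cell viability assay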
Description: SANGER: Inhibition of human ARH-77 cell growth in a cell viability assay.

[16] = tested on: NCI-H345; assay type: functional, cell-based, Homo sapiens;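 note: growth inhibition of NCI-H345 cells measured with a cell viability assay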
Description: SANGER: Inhibition of human NCI-H345 cell growth in a cell viability assay.

[17] = tested on: SK-MM-2; assay type: functional, cell-based, Homo sapiens;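 note: growth inhibition of human SK-MM-2 cells, read out with a cell viability assay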
Description: SANGER: Inhibition of human SK-MM-2 cell growth in a cell viability assay.

[18] = tested on: IST-SL2; assay type: functional, cell-based, Homo sapiens;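 note: growth inhibition of human IST-SL2 cells, read out by a cell viability assay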
Description: SANGER: Inhibition of human IST-SL2 cell growth in a cell viability assay.

[19] = tested on: KARPAS-422; assay type: functional, cell-based, Homo sapiens
Description: SANGER: Inhibition of human KARPAS-422 cell growth in a cell viability assay.

[20] = tested on: RL95-2; assay type: functional, cell-based, Homo sapiens;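 note: RL95-2 growth inhibition determined through a cell viability readout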
Description: SANGER: Inhibition of human RL95-2 cell growth in a cell viability assay.

Structure (SMILES) | IC50 ([1]; Homo sapiens, MFH-ino) | IC50 ([2]; Homo sapiens, CMK) | IC50 [3] | IC50 ([4]; Homo sapiens, NCI-H719) | IC50 ([5]; Homo sapiens, SNU-C1) | IC50 ([6]; Homo sapiens, NCI-H187) | IC50 ([7]; Homo sapiens, Raji) | IC50 ([8]; Homo sapiens, LP-1) | IC50 ([9]; Homo sapiens, NB7) | IC50 ([10]; Homo sapiens, KMOE-2) | IC50 ([11]; Homo sapiens, L-540) | IC50 ([12]; Homo sapiens, SNU-16) | IC50 ([13]; Homo sapiens, MONO-MAC-6) | IC50 ([14]; Homo sapiens, DMS-153) | IC50 ([15]; Homo sapiens, ARH-77) | IC50 ([16]; Homo sapiens, NCI-H345) | IC50 ([17]; Homo sapiens, SK-MM-2) | IC50 ([18]; Homo sapiens, IST-SL2) | IC50 ([19]; Homo sapiens, KARPAS-422) | IC50 ([20]; Homo sapiens, RL95-2) | further results
COc1cc(N2CCC(N3CCN(C)CC3)CC2)ccc1Nc1ncc(Cl)c(Nc2ccccc2S(=O)(=O)C(C)C)n1 [TAE-684] | 325 nM | 255 nM | > 2000 nM | > 2000 nM | > 2000 nM | 1700 nM | > 2000 nM | 1870 nM | > 2000 nM | > 2000 nM | 370 nM | 727 nM | 333 nM | > 2000 nM | > 2000 nM | > 2000 nM | 416 nM | > 2000 nM | 1100 nM | 501 nM | –
NC(=O)c1cccc(-c2cc(Nc3ccc(OC(F)(F)F)cc3)ncn2)c1 | > 1280 nM | > 1280 nM | – | > 1280 nM | > 1280 nM | > 1280 nM | > 1280 nM | > 1280 nM | > 1280 nM | > 1280 nM | > 1280 nM | > 1280 nM | > 1280 nM | > 1280 nM | > 1280 nM | > 1280 nM | > 1280 nM | > 1280 nM | > 1280 nM | > 1280 nM | –
Cc1cc(N2CCOCC2)cc2[nH]c(-c3c(NC[C@@H](O)c4cccc(Cl)c4)cc[nH]c3=O)nc12 | 344 nM | 745 nM | – | > 5120 nM | 2540 nM | 2340 nM | > 5120 nM | > 5120 nM | > 5120 nM | > 5120 nM | > 5120 nM | 873 nM | 608 nM | > 5120 nM | 2800 nM | > 5120 nM | 630 nM | > 5120 nM | > 5120 nM | 813 nM | –
Nc1ccccc1NC(=O)c1ccc(CNC(=O)OCc2cccnc2)cc1 [ENTINOSTAT] | 3470 nM | 357 nM | > 5000 nM | 1180 nM | > 5000 nM | 492 nM | > 5000 nM | 1300 nM | > 5000 nM | 2880 nM | 1110 nM | > 5000 nM | 388 nM | 975 nM | 382 nM | 2330 nM | 399 nM | 2000 nM | 1450 nM | 2110 nM | –
CC(C)C[C@H](NC(=O)[C@H](Cc1ccccc1)NC(=O)c1cnccn1)B(O)O [BORTEZOMIB] | 0.443 nM | 1.29 nM | > 20 nM | > 20 nM | > 20 nM | > 20 nM | 4.46 nM | > 20 nM | 15.9 nM | 2.23 nM | 1.37 nM | 7.65 nM | 3.1 nM | > 20 nM | 2.38 nM | 7.2 nM | 1.09 nM | 1.31 nM | > 20 nM | 3.79 nM | –
C[C@@H](Oc1cc(-c2cnn(C3CCNCC3)c2)cnc1N)c1c(Cl)ccc(F)c1Cl [CRIZOTINIB] | > 2000 nM | 1960 nM | > 2000 nM | > 2000 nM | > 2000 nM | > 2000 nM | > 2000 nM | > 2000 nM | > 2000 nM | > 2000 nM | > 2000 nM | > 2000 nM | > 2000 nM | > 2000 nM | > 2000 nM | > 2000 nM | > 2000 nM | > 2000 nM | > 2000 nM | > 2000 nM | –
C=CC(=O)N1CCCC(Nc2nc(Nc3ccc(N(C)C(=O)CC)cc3)nc3[nH]cnc23)C1 (stereo unspecified) | > 10200 nM | > 10200 nM | – | > 10200 nM | > 10200 nM | > 10200 nM | > 10200 nM | > 10200 nM | > 10200 nM | > 10200 nM | > 10200 nM | > 10200 nM | > 10200 nM | > 10200 nM | > 10200 nM | > 10200 nM | > 10200 nM | > 10200 nM | > 10200 nM | > 10200 nM | –
Cc1ccc(NC(=O)c2ccc(CN3CCN(C)CC3)cc2)cc1Nc1nccc(-c2cccnc2)n1 [IMATINIB] | > 2000 nM | > 2000 nM | > 2000 nM | > 2000 nM | > 2000 nM | > 2000 nM | > 2000 nM | > 2000 nM | > 2000 nM | > 2000 nM | > 2000 nM | > 2000 nM | > 2000 nM | > 2000 nM | > 2000 nM | > 2000 nM | > 2000 nM | > 2000 nM | > 2000 nM | > 2000 nM | –
COc1ccc(N(C(=O)Oc2c(C)cccc2C)c2ccnc(Nc3ccc(N4CCN(C)CC4)cc3)n2)c(OC)c1 | 239 nM | > 5120 nM | – | > 5120 nM | > 5120 nM | > 5120 nM | > 5120 nM | > 5120 nM | > 5120 nM | > 5120 nM | > 5120 nM | 15.7 nM | > 5120 nM | > 5120 nM | > 5120 nM | > 5120 nM | > 5120 nM | 1470 nM | > 5120 nM | 1320 nM | –
CC(C)C[C@@H](C=O)NC(=O)[C@H](CC(C)C)NC(=O)[C@H](CC(C)C)NC(=O)OCc1ccccc1 [MG-132] (Cbz-Leu-Leu-Leu-aldehyde) | – | – | > 1000 nM | – | – | – | > 1000 nM | – | – | > 1000 nM | – | > 1000 nM | 536 nM | > 1000 nM | – | – | – | – | – | – | IC50 ([1]; mfh-ino): > 1000 nM and 111 nM; IC50 ([2]; cmk): 311 nM and > 1000 nM; IC50 ([4]; nci-h719): > 1000 nM; IC50 ([5]; snu-c1): > 1000 nM; IC50 ([6]; nci-h187): > 1000 nM; IC50 ([7]; raji): > 1000 nM; IC50 ([8]; lp-1): > 1000 nM; IC50 ([9]; nb7): > 1000 nM; IC50 ([10]; kmoe-2): > 1000 nM; IC50 ([11]; l-540): > 1000 nM; IC50 ([12]; snu-16): > 1000 nM; IC50 ([13]; mono-mac-6): 718 nM; IC50 ([14]; dms-153): > 1000 nM; IC50 ([15]; arh-77): > 1000 nM; IC50 ([16]; nci-h345): > 1000 nM; IC50 ([17]; sk-mm-2): > 1000 nM; IC50 ([18]; ist-sl2): > 1000 nM; IC50 ([19]; karpas-422): > 1000 nM; IC50 ([20]; rl95-2): > 1000 nM

From ChEMBL document CHEMBL1201861, “Genomics of Drug Sensitity in Cancer screening data, Wellcome Trust Sanger Institute”
